Source: patent US20090048269A1 (AstraZeneca AB, priority 2007, published 2009)

Each molecule was assayed against T1, human ALK5 (Homo sapiens, UniProt P36897) (assay: ALK5 Enzyme Assay 2 (fluorescence polarisation probe displacement)). Conditions: read-out: EAA2: activity (μM) using Enzyme Assay 2.
T1 sequence (P36897 162-503): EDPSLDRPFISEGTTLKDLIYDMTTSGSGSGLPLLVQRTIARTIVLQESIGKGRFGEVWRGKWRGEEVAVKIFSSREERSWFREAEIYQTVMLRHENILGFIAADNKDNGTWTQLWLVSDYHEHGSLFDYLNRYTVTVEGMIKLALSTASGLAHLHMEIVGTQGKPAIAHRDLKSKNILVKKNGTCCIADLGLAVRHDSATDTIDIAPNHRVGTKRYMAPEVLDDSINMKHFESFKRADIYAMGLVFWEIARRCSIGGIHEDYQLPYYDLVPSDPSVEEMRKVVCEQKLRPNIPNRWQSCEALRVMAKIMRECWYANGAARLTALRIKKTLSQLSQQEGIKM
Assay type: binding
Parameters: 6His tagged human ALK5 (residues162-503) was grown and purified from insect cells; 6His; made in house; host or cells: insect cells
Description: The ability of a compound to bind and inhibit ALK5 can be measured by its capacity to displace a probe molecule from recombinant ALK5 in an in vitro assay. Provided the probe molecule is derivatised with a fluorescent probe or is fluorescent itself, the binding affinity can be measured using Fluorescence Polarisation (FP). […] Assay measurements were performed in 50 mM HEPES pH7.4, 10 mM MgCl2, 1 mM DTT, 0.01% CHAPS in a final assay volume of 12 μl. Briefly 6 μl of ALK5 protein, final concentration of 3 μg/mL, was added to each well of a 384 well assay plate containing 12 nL of each concentration of test compound dissolved in DMSO. 6 μL of a solution containing an ALK5 FP probe ((2Z)-3-(6-{4-[2-({4-[(6-chloro[1,3]dioxolo[4,5-b]pyridin-7-yl)amino]-5-(1-methylethoxy)quinazolin-7-yl}oxy)ethyl]piperazin-1-yl}-6-oxohexyl)-2-[(2E,4E)-5-(3-ethyl-1,1-dimethyl-6,8-disulfo-1H-benzo[e]indolium-2-yl)penta-2,4-dien-1-ylidene]-1,1-dimethyl-6-sulfo-2,3-dihydro-1H-benzo[e]indole-8-sulfonate), final concentration 50 nM, and ATP, final concentration 1 μM.
Cc1ccc(Oc2ccnc(Nc3cccc(C(=O)N4CCCC(C(N)=O)C4)c3)c2)c(C)n1 (stereo not shown) [Example 68, 1-(3-{[4-(2,6-Dimethylpyridin-3-yl)oxypyridin-2-yl]amino}-benzoyl)piperidine-3-carboxamide] showed an IC50 of 0.00895 µM. In the case of Cc1ccc(Oc2ccnc(Nc3ccccc3)c2)c(C(=O)NCc2ccccc2)n1 [Example 96, 3-(2-Anilinopyridin-4-yl)oxy-N-benzyl-6-methylpyridine-2-carboxamide], the IC50 is reported as 0.292 µM. With Cc1ccc(Oc2ccnc(Nc3cccc(C(=O)N4CCN(C)CC4)c3)c2)c(C)n1 [Example 71, [3-{[4-(2,6-Dimethylpyridin-3-yl)oxypyridin-2-yl]amino}phenyl]-(4-methylpiperazin-1-yl)methanone] the IC50 was 0.096 µM. For Cc1ccc(Oc2ccnc(Nc3ccc(C(N)=O)cc3)c2)c(-c2ccccn2)n1 [Example 146, 4-{[4-(6-Methyl-2-pyridin-2-ylpyridin-3-yl)oxypyridin-2-yl]-amino}benzamide], the IC50 was 0.0152 µM. Work on Cc1ccc(Oc2ccnc(Nc3ccccn3)c2)c(C)n1 [Example 153, 4-(2,6-Dimethylpyridin-3-yl)oxy-N-pyridin-2-ylpyridin-2-amine] yielded an IC50 of 0.0238 µM. Cc1cc(Oc2ccnc(Nc3cccc(C(=O)NC4CC4)c3)c2)c(-c2ccccn2)nc1C [Example 72, N-Cyclopropyl-3-{[4-(5,6-dimethyl-2-pyridin-2-ylpyridin-3-yl)-oxypyridin-2-yl]amino}benzamide] showed an IC50 of 0.0108 µM. Cc1cc(Oc2ccnc(Nc3ccc(C(N)=O)cc3)c2)c(-c2ccccn2)nc1C [Example 81, 4-{[4-(5,6-Dimethyl-2-pyridin-2-ylpyridin-3-yl)oxypyridin-2-yl]-amino}benzamide] gave an IC50 of 0.0111 µM. For Cc1ccc(Oc2ccnc(Nc3cccc(C(=O)NC4CC4)c3)c2)c(C)n1 [Example 194A, N-Cyclopropyl-3-{[4-(2,6-dimethylpyridin-3-yl)oxypyridin-2-yl]-amino}benzamide], the IC50 was 0.0457 µM. In the case of Cc1ccc(Oc2ccnc(Nc3cccc(NS(C)(=O)=O)c3)c2)c(C)n1 [Example 128, N-(3-{[4-(2,6-Dimethylpyridin-3-yl)oxypyridin-2-yl]amino}-phenyl)methanesulfonamide], the IC50 is reported as 0.0321 µM. Molecule Cc1ccc(Oc2ccnc(Nc3cccc(CO)c3)c2)c(C)n1 [Example 174, (3-{[4-(2,6-Dimethylpyridin-3-yl)oxypyridin-2-yl]amino}phenyl)-methanol] has an IC50 of 0.0113 µM. Work on CCn1nccc1Nc1cc(Oc2ccc(C)nc2C)ccn1 [Example 88, 4-[(2,6-Dimethylpyridin-3-yl)oxy]-N-(1-ethyl-1H-pyrazol-5-yl)-pyridin-2-amine] yielded an IC50 of 0.205 µM. Cc1ccc(Oc2ccnc(Nc3ccc(C(=O)NCCn4cccc4)cc3)c2)c(C)n1 [Example 216, 4-{[4-(2,6-Dimethylpyridin-3-yl)oxypyridin-2-yl]amino}-N-(2-pyrrol-1-ylethyl)benzamide] showed an IC50 of 0.108 µM. Cc1ccc(Oc2ccnc(Nc3cccc(C(=O)NCc4cnccn4)c3)c2)c(C)n1 [Example 64, 3-{[4-(2,6-Dimethylpyridin-3-yl)oxypyridin-2-yl]amino}-N-(pyrazin-2-ylmethyl)benzamide] gave an IC50 of 0.0415 µM. Cc1ccc(Oc2ccnc(Nc3ccc(C(=O)NCCNS(=O)(=O)N(C)C)cc3)c2)c(C)n1 [Example 142, 4-{[4-(2,6-Dimethylpyridin-3-yl)oxypyridin-2-yl]amino}-N-[2-(dimethylsulfamoylamino)ethyl]benzamide] showed an IC50 of 0.0506 µM. Molecule CC(=O)Nc1ccc(Nc2cc(Oc3cc(C)c(C)nc3-c3ccccn3)ccn2)cc1 [Example 86, N-(4-{[4-(5,6-Dimethyl-2-pyridin-2-ylpyridin-3-yl)oxypyridin-2-yl]-amino}phenyl)acetamide] has an IC50 of 0.00842 µM. In the case of COc1cc(Nc2cc(Oc3ccc(C)nc3-c3cccnc3)ccn2)cc(OC)c1OC [Example 172, 4-(6-Methyl-2,3′-bipyridin-3-yloxy)-N-(3,4,5-trimethoxyphenyl)-pyridin-2-amine], the IC50 is reported as 0.061 µM. For Cc1ccc(Oc2ccnc(Nc3cccc(CN4CCN(C)CC4)c3)c2)c(C)n1 [Example 193, 4-(2,6-Dimethylpyridin-3-yl)oxy-N-{3-[(4-methylpiperazin-1-yl)-methyl]phenyl}pyridin-2-amine], the IC50 was 0.00427 µM. With Cc1ccc(Oc2ccnc(Nc3cccc(CN4CCN(C(=O)Nc5ccc(F)c(Cl)c5)CC4)c3)c2)c(C)n1 [Example 180, N-(3-Chloro-4-fluorophenyl)-4-[(3-{[4-(2,6-dimethylpyridin-3-yl)oxypyridin-2-yl]amino}phenyl)methyl]piperazine-1-carboxamide] the IC50 was 0.0896 µM. Molecule Cc1ccc(Oc2ccnc(Nc3ccc(S(=O)(=O)NCCN4CC[C@H](F)C4)cc3)c2)c(C)n1 [Example 137] has an IC50 of 0.163 µM. With Cc1cc(Oc2ccnc(Nc3cccc(CN4CCN(C)CC4)c3)c2)c(-c2ccccn2)nc1C [Example 78, 4-(5,6-Dimethyl-2-pyridin-2-ylpyridin-3-yl)oxy-N-{3-[(4-methyl-piperazin-1-yl)methyl]phenyl}pyridin-2-amine] the IC50 was 0.0384 µM. With Cc1ccc(Oc2ccnc(Nc3cccc(C(=O)N4CC[C@@H](S(C)(=O)=O)C4)c3)c2)c(C)n1 (single isomer, unassigned) [Example 139] the IC50 was 0.0495 µM. Work on CC(=O)NC1CCN(C(=O)c2cccc(Nc3cc(Oc4ccc(C)nc4C)ccn3)c2)C1 (stereo not shown) [Example 65, N-[1-(3-{[4-(2,6-Dimethylpyridin-3-yl)oxypyridin-2-yl]-amino}benzoyl)pyrrolidin-3-yl]acetamide] yielded an IC50 of 0.0457 µM. For Cc1ccc(Oc2ccnc(Nc3ccc(C(=O)NCCN4CCOCC4)cc3)c2)c(C)n1 [Example 220, 4-{[4-(2,6-Dimethylpyridin-3-yl)oxypyridin-2-yl]amino}-N-(2-morpholin-4-ylethyl)benzamide], the IC50 was 0.0675 µM. CC(=O)N(C)c1ccc(Nc2cc(Oc3ccc(C)nc3C)ccn2)cc1 [Example 122, N-(4-{[4-(2,6-Dimethylpyridin-3-yl)oxypyridin-2-yl]amino}-phenyl)-N-methylacetamide] showed an IC50 of 0.215 µM. COC(=O)c1cccc(Nc2cc(Oc3cc(C)c(C)nc3-c3ccccn3)ccn2)c1 [Example 202, Methyl 3-{[4-(5,6-dimethyl-2-pyridin-2-ylpyridin-3-yl)oxypyridin-2-yl]amino}benzoate] showed an IC50 of 0.0279 µM. Work on Cc1ccc(Oc2ccnc(Nc3ccc(S(N)(=O)=O)cc3)c2)c(-c2ccc(F)cc2)n1 [Example 156, 4-({4-[2-(4-Fluorophenyl)-6-methylpyridin-3-yl]oxypyridin-2-yl}amino)benzenesulfonamide] yielded an IC50 of 0.0454 µM. Cc1cc(Oc2ccnc(Nc3ccc(OCCCNC(=O)OC(C)(C)C)cc3)c2)c(-c2ccccn2)nc1C [Example 196, tert-Butyl N-[3-(4-{[4-(5,6-dimethyl-2-pyridin-2-ylpyridin-3-yl)-oxypyridin-2-yl]amino}phenoxy)propyl]carbamate] showed an IC50 of 0.00903 µM. Cc1ccc(Oc2ccnc(Nc3ccc(C(=O)NCCn4cccn4)cc3)c2)c(C)n1 [Example 140, 4-{[4-(2,6-Dimethylpyridin-3-yl)oxypyridin-2-yl]amino}-N-(2-pyrazol-1-ylethyl)benzamide] showed an IC50 of 0.0208 µM. For Cc1ccc(Oc2ccnc(Nc3cccc(S(=O)(=O)Nc4ccccc4)c3)c2)c(C)n1 [Example 111, 3-{[4-(2,6-Dimethylpyridin-3-yl)oxypyridin-2-yl]amino}-N-phenylbenzenesulfonamide], the IC50 was 0.621 µM. In the case of Cc1ccc(Oc2ccnc(Nc3cccc(CN4CCN(C(=O)NC5CCCCC5)CC4)c3)c2)c(C)n1 [Example 178, N-Cyclohexyl-4-{3-[4-(2,6-dimethylpyridin-3-yloxy)pyridin-2-ylamino]benzyl}piperazine-1-carboxamide], the IC50 is reported as 0.0237 µM. Molecule Cc1ccc(Oc2ccnc(Nc3cccc(CN4CCN(C(=O)C5CCOCC5)CC4)c3)c2)c(C)n1 [Example 186, {4-[(3-{[4-(2,6-Dimethylpyridin-3-yl)oxypyridin-2-yl]amino}-phenyl)methyl]piperazin-1-yl}-(oxan-4-yl)methanone] has an IC50 of 0.0238 µM. Cc1ccc(Oc2ccnc(Nc3ccc(S(=O)(=O)NC4CCC4)cc3)c2)c(C)n1 [Example 113, N-Cyclobutyl-4-{[4-(2,6-dimethylpyridin-3-yl)oxypyridin-2-yl]-amino}benzenesulfonamide] showed an IC50 of 0.288 µM. In the case of Cc1cc(Oc2ccnc(Nc3cccc(-c4cnco4)c3)c2)c(-c2ccccn2)nc1C [Example 77, 4-(5,6-Dimethyl-2-pyridin-2-ylpyridin-3-yl)oxy-N-[3-(1.3-oxazol-5-yl)phenyl]pyridin-2-amine], the IC50 is reported as 0.00862 µM. Cc1ccc(Oc2ccnc(Nc3cccc(CN4CCN(C(=O)CCNC(=O)OC(C)(C)C)CC4)c3)c2)c(C)n1 [Example 208, tert-Butyl N-(3-{4-[(3-{[4-(2,6-dimethylpyridin-3-yl)oxypyridin-2-yl]amino}phenyl)methyl]piperazin-1-yl}-3-oxopropyl)carbamate] gave an IC50 of 0.0204 µM.
